Data published in US9884851B2, “Heterocycle-bisamide inhibitors of scavenger receptor BI” (THE BROAD INSTITUTE, INC., priority 2012, dated 2018).
≈ marks a conversion by molar mass, not a printed value. Entries after “also recorded” stand apart in the source; their conditions may differ.

Experiments:
Plasma protein binding = assay type: in vitro ADME; conditions: human plasma; read-out: plasma protein binding (PPB), bound (converted)
[1] = test system: endocytosis of transferrin; experiment: Transferrin endocytosis assay; assay type: cell-based, Chinese hamster; conditions: concentrations up to 35 μM
Text: Transferrin Endocytosis Assay (SA 3: AID No. 602134)
This assay measures the endocytosis of an independent ligand, transferrin, which is not taken up via SR-BI but by clathrin-mediated endocytosis; thus providing a measure of the selectivity of the inhibitors. Alexa-594-labeled transferrin is taken into the cell via endocytosis and localization of labeled transferrin can be quantitated in the various intracellular compartments. […] Inhibitors of interest should act selectively at SR-BI and should have no activity in this assay.
Cells were pre-treated with compound for 3 hours and then treated with the Alexa-594 transferrin reagent for 30 minutes (Catalog No. T-13343; Invitrogen) in serum-free media. Plates of cells were then placed onto ice, washed with ice cold PBS, and then fixed with 4% paraformaldehyde. In addition, the nuclei were stained with 300 nM 4′,6-diamidino-2-phenylindole (DAPI) (Catalog No. 21490; Invitrogen). The cells were imaged with the Molecular Devices IXM microscope. Translocation measurements were performed using MetaExpress software and normalized for cell number.

ldlA7 cells = experiment: DiI-HDL uptake assay in the absence of SR-BI (ldlA7 counterscreen); assay type: cell-based, Chinese hamster; conditions: Cricetulus griseus; parental cells not overexpressing SR-BI
Description: DiI-HDL Uptake Assay in the Absence of SR-BI (SA 7: AID No. 588825)
In the primary assay, the cell line used to measure DiI-HDL uptake lacks the LDL receptor and overexpresses SR-BI. […] As in the primary assay, 10 μg protein/ml of DiI-HDL was used to measure DiI uptake into the cells after 3 hours of incubation with different concentrations of compound.

[2] = biological target: T1, purified SR-BI (mSR-BI-t1) (Mus musculus, UniProt Q61009); experiment: Lipid transport assay in liposomes; assay type: biochemical, murine; conditions: [3H]CE uptake into SR-BI liposomes
T1 construct: made in house; host or cells: HEK293S GnTI-defective cells, tetracycline-inducible promoter
T1 sequence (Q61009 1-509): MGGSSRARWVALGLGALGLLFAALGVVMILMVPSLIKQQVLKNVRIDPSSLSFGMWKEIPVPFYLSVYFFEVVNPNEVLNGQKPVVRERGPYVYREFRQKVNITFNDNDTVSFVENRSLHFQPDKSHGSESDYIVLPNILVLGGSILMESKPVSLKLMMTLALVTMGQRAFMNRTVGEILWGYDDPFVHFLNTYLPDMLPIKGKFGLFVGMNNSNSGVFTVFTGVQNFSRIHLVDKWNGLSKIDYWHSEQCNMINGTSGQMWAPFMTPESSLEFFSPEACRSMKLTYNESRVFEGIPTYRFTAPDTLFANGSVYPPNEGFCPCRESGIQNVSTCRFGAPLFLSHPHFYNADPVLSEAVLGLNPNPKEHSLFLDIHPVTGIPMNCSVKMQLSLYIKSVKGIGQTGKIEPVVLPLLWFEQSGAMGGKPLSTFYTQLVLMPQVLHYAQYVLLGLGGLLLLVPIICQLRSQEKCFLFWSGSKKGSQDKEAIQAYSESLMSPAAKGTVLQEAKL
Description: This assay provides confirmation of activity via SR-BI by measuring the uptake of [^3H]cholesteryl ester ([^3H]CE) into liposomes loaded with purified SR-BI. For the purification of C-terminally epitope-tagged murine SR-BI (mSR-BI-t1) with uniform, truncated N-linked oligosaccharide chains, we overexpressed mSR-BI-t1 in HEK293S cells. The mSR-BI-t1 was expressed in an N-acetylglucosaminyltransferase I (GnTI)-defective HEK293S derivative, HEK293S GnTI (2), which generates a glycoprotein with uniform, truncated N-linked oligosaccharide chains under the control of a tetracycline-inducible promoter. mSR-BI-t1 was immunoaffinity purified to virtual homogeneity, and the detergent-solubilized receptor was reconstituted into liposomes. Subsequently, the in vitro SR-BI-mediated selective uptake of [^3H]CE from [^3H]CE-HDL in the reconstituted liposomes was measured. […] Briefly, 20 μg of SR-BI (or an equivalent volume of protein-free buffer to generate control liposomes that are devoid of SR-BI) was reconstituted into liposomes by acetone precipitation. […] Incubation was continued for 4 hours at 37° C., and then selective uptake of [^3H]CE into liposomes was determined using the previously described filter binding assays (15). SR-BI-selective uptake values were determined.

SR-BI [3] = biological target: T2, SR-BI (Mus musculus, UniProt Q61009); experiment: HDL binding assay (Alexa 488 HDL); assay type: cell-based, murine; design: expressed in transfected cells; host or cells: ldlA[mSR-BI], Chinese hamster ovary (CHO) cells lacking LDL receptor (Krieger Laboratory)
T2 sequence (Q61009 1-509): T1 sequence (Q61009 1-509)
Description: HDL binding was assessed using Alexa Fluor 488-labeled HDL particles. For this assay, the Alexa 488 dye was directly covalently bound to apolipoprotein components of the HDL particle via primary amines; thus, no transfer of the fluorophore to cell membranes occurs. Instead, direct binding of the HDL particles to SR-BI can be measured. As a positive control, BLT-1, which is known to increase binding, was used at 1 μM. It is possible that a compound can reduce binding of HDL to the receptor, and this would lead to a decrease in signal. This assay is used to characterize the mechanism of action of a particular compound; therefore, any outcome in the assay is acceptable. Data were normalized against DMSO and the positive control (1 μM BLT-1) in Genedata Assay Analyzer.

SR-BI [4] = biological target: T2, SR-BI; experiment: Cholesterol efflux assay; assay type: cell-based, murine; design: expressed in transfected cells; host or cells: ldlA[mSR-BI], Chinese hamster ovary (CHO) cells lacking LDL receptor (Krieger Laboratory); conditions: for inhibition of efflux of free cholesterol (in words): efflux to HDL
Description: SR-BI also mediates bidirectional flux (e.g. efflux) of unesterified or ‘free’ cholesterol (FC) between cells and HDL or other acceptors. This assay is used to determine if the compounds alter the efflux of free cholesterol to HDL.
On Day 0, 50,000 cells per well were plated in 24-well plates. On the following day, the media was removed and [^3H]cholesterol in lipoprotein-deficient media was added. On Day 1, the medium was replaced with Ham's F12 medium supplemented with 10% bovine lipoprotein deficient serum with 1 μCi/ml [1,2-^3H]cholesterol (40-60 Ci/mmol). On Day 3, the cells were washed to remove serum and incubated in Ham's F12 plus 1% fatty acid-free BSA. On Day 4, the cells were washed and pretreated with compounds for 1 hour. Subsequently, the cells were incubated for an additional 2 hours with the same concentrations of small molecules and with unlabeled HDL (final HDL concentration of 100 μg protein/ml). The medium was collected to determine released cholesterol, and the cells were lysed. The amount of [^3H]cholesterol in the medium and cells was determined using liquid scintillation counting. Total cellular [^3H]cholesterol was calculated as the sum of the radioactivity in the efflux medium plus the radioactivity in the cells and was used to calculate the [^3H]cholesterol efflux (percent of total [^3H]cholesterol released into the medium).

Solubility in PBS = assay type: physicochemical; conditions: PBS pH 7.4, 23° C., 1% DMSO
Description: We noticed that the concentration of the probe fluctuated through the course of the assay (data not shown). We believe that this fluctuation is due to the low kinetic solubility of the probe. Thus, we decided to determine the amount of undissolved probe present in the well after it was treated with PBS for a given length of time, relative to the amount of undissolved probe at the start of the assay. The wells were centrifuged and the supernatant was removed after various time points, then acetonitrile was added to dissolve the remaining solid in the wells, and the amount of probe was quantified. […] The stability of the probe was confirmed by measuring stability in human plasma, with >99% remaining after a 5-hour incubation period. […] FIG. 5 summarizes known properties of the probe.

[5] = listed as compound of Formula (II)

## C[C@H](C(=O)NC1CCCC1)N(C(=O)Cn1nnc(-c2ccc3c(c2)OCO3)n1)C1CCCCC1 [ML279, (R)-2-(2-(5-(Benzo[d][1,3]dioxol-5-yl)-2H-tetrazol-2-yl)-N-cyclohexylacetamido)-N-cyclopentylpropanamide]
Plasma protein binding
  fraction unbound: 0.235
[1]
  endocytosis of transferrin (in words): does not inhibit endocytosis of transferrin; also recorded: not grossly perturbing cellular membrane trafficking pathways; also recorded: no effect on the endocytosis of transferrin
[1]; [5]
  endocytosis of transferrin (in words): does not inhibit endocytosis of transferrin
ldlA7 cells
  IC50: > 35000 nM
[2]
  interaction with SR-BI in purified liposomes (in words): direct interaction between the probe and SR-BI
SR-BI [3]; Alexa Fluor 488-labeled HDL
  AC50: 270 nM
SR-BI [3]; Alexa-488 labeled HDL
  effect on binding of HDL to SR-BI (in words): increases binding of HDL to the receptor
SR-BI [4]
  reduction of efflux of free cholesterol from cells: about 50%
  inhibition of efflux of free cholesterol (in words): inhibiting both SR-BI-mediated uptake of cholesteryl ester from HDL and efflux of free cholesterol to HDL particles; also recorded: inhibits efflux of free cholesterol
SR-BI [4]; [5]
  inhibition of efflux of free cholesterol (in words): inhibit efflux of cholesterol
Solubility in PBS; listed as CID53393835
  solubility: 27 µM (≈ 12.7 µg/mL)
Solubility in PBS; phosphate buffered saline, 23 °C, pH 7.4, aqueous buffer, kinetic from dmso stock
  solubility: 28 µM (≈ 13.1 µg/mL)
